Assay results published in US20220288052A1, “COMPOUND FOR COMBINATION TREATMENT” (priority 2019, published 2022).
Read-outs that look alike come from different tables or passages of the source.

Key:
plasma protein = assay: Plasma protein binding by equilibrium dialysis, dog; type: in vitro ADME
Experimental: The plasma protein binding was tested in rat, mouse, dog and human plasma by equilibrium dialysis. The plasma protein binding of this compound is remarkably low (Table 24).

[1] = system: brain levels of noradrenalin (NA); assay: In vivo microdialysis, NA; set-up: species or system rat
Experimental: The purpose of the present study was to examine, by in vivo microdialysis technique, the effects after administration of compound (I) on brain levels of serotonin, noradrenalin and dopamine within the ventral hippocampus (Hipp), prefrontal cortex (PFC), striatum (STR) and nucleus accumbens (N.Acc) of anaesthetized rats and mice. Compound (I) represents dual acting serotonin/dopamine reuptake inhibitors and was tested in comparison to citalopram a selective serotonin uptake inhibitor. Compound (I) was tested following subcutaneous injections at dose levels between 0.25-30 mg/kg. […] Pre-treatment with the 5-HT1A autoreceptor antagonist WAY-100635 induced a further minor increase of the compound (I) (0.25 mg/kg) induced increase in the PFC level of 5-HT.

CYP 2D6 = CYP 2D6 (Homo sapiens, UniProt P10635); assay: CYP450 inhibition, cocktail of selective substrates, 2D6; type: in vitro ADME; conditions: CYP 2D6, Bufuralol to 1′-hydroxybufuralol; read-out: IC50 of compound (I)
Experimental: Compound (I) was tested for CYP450 inhibition using a cocktail of selective substrates. […] This might be addressed later in a clinical study.

[2] = Metabolic stability in liver microsomes, guinea pig; type: in vitro ADME
Experimental: (§1) The metabolic stability of compound (I) was tested in liver microsomes from all in house available species at 1 and 5 μM. One metabolite of 16 mass units higher than parent, was found in all incubations, except with human liver microsomes.

Nicotinic α7 = Nicotinic α7 (Rattus norvegicus, UniProt Q05941); assay: In-house nicotinic binding assay, Nicotinic α7
mice erectile tissue = assay: Penile flow by laser doppler in mice; type: in vivo, mouse
Experimental: FIG. 33: Flow laser doppler raw data from mice erectile function (top), and average flow changes (EF) in mice erectile tissue (bottom). The increase in penile flow induced by compound (I) (1 mg/kg) was highly significant and increased 4.99 times, n=2.
A laser doppler flow probe was positioned in situ in mice erectile tissue for measurement of penile basal flow in the absence and the presence of compound (I).

5-HT transporter [3] = target: 5-HT transporter (Homo sapiens, UniProt P31645); assay: ^3H-uptake human, 5-HT transporter; type: biochemical
Source text: (§2) Compound (I) has been characterized as a monoamine reuptake inhibitor, based on the profile in a series of functional assays (Table 2).

[4] = Bioavailability study in mouse; type: in vivo
Source text: Compound (I) is absorbed quickly.

5-HT transporter [5] = target: 5-HT transporter (Rattus norvegicus, UniProt P31652); assay: ^3H-uptake rat, 5-HT transporter; type: biochemical
Source text: as §2

SERT = SERT (Homo sapiens, UniProt P31645); assay: MDS LeadProfilingScreen, SERT; type: binding
[6] = Metabolic stability in liver microsomes, mouse; type: in vitro ADME
Experimental: as §1

[7] = Purity and stability study (solution, photo, oxidation, solid state); type: physicochemical
Experimental: A purity and stability study was performed on exo-7-(8-aza-bicyclo[3.2.1]oct-3-yloxy)-chromen-2-one (compound (I)) hydrochloride anhydrate, showing that the compound is chemically and thermodynamically stable as solid and in solution, but sensitive to light when in solution.

NMRI mice = assay: Mouse forced swim test (mFST); type: in vivo
Experimental: Compound (I) was tested in two of the most widely used behavioural screens for predicting antidepressant effects in the clinic: the mouse forced swim test (mFST) and mouse tail suspension test (mTST).
In order to further characterize the role played by 5-HT and DA-ergic neurotransmission in the antidepressant-like effects of compound (I), the potential involvement of 5-HT1A and D1 receptors was investigated in the mFST.

Serotonin 5-HT3 = target: T1, Serotonin 5-HT3 (Homo sapiens, UniProt P46098); assay: MDS LeadProfilingScreen, Serotonin 5-HT3; type: binding
T1 sequence (P46098 24-478): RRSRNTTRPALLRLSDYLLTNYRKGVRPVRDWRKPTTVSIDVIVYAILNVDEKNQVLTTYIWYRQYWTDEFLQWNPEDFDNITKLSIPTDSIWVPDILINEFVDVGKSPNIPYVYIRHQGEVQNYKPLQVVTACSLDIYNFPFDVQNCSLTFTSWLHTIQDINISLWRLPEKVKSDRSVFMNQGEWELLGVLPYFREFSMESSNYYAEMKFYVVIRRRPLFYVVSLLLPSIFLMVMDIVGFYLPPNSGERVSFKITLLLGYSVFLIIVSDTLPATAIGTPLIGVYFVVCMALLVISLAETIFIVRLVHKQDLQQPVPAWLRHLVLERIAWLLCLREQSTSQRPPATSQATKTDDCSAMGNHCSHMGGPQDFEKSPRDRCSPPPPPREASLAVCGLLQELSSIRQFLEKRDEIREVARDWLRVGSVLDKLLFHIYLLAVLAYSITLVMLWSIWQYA

[8] = female, NMRI, plasma, intravenous, 10 mg/kg
[9] = female, NMRI, plasma, po, 10 mg/kg p.o.

5-HT transporter (Homo sapiens, UniProt P31645), sequence (P31645 whole entry): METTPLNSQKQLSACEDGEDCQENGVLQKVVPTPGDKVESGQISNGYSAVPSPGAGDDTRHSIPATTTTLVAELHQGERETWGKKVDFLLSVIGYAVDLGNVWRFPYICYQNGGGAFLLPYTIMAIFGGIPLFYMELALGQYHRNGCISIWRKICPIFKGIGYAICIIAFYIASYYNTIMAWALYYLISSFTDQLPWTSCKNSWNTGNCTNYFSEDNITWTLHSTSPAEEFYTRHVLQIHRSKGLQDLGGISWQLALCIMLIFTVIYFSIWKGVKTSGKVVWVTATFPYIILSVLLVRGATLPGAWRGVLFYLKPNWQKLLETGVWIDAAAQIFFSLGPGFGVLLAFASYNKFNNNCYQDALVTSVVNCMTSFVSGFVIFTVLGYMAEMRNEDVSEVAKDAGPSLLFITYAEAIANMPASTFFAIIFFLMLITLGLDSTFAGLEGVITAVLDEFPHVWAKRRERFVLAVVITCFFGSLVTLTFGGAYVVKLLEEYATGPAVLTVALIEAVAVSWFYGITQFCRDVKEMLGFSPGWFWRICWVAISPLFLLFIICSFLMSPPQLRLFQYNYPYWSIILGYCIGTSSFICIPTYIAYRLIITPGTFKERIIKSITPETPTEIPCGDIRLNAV
SERT, sequence (P31645 whole entry): as above
5-HT transporter (Rattus norvegicus, UniProt P31652), sequence (P31652 whole entry): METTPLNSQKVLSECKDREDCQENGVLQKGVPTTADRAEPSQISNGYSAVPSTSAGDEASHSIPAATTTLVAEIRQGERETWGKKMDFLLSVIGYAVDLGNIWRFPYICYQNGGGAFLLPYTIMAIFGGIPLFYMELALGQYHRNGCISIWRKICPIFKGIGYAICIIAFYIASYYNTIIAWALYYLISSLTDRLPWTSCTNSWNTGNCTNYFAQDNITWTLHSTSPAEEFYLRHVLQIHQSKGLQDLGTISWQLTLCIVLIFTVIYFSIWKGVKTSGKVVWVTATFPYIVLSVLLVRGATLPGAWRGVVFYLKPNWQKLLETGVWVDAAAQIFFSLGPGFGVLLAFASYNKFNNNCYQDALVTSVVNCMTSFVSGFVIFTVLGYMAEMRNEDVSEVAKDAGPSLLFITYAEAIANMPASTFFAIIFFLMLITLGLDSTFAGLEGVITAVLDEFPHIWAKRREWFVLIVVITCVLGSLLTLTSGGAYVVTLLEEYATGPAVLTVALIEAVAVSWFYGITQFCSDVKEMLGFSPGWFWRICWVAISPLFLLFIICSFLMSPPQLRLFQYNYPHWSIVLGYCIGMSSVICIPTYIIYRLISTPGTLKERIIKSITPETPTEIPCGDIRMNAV
Nicotinic α7, sequence (Q05941 23-502): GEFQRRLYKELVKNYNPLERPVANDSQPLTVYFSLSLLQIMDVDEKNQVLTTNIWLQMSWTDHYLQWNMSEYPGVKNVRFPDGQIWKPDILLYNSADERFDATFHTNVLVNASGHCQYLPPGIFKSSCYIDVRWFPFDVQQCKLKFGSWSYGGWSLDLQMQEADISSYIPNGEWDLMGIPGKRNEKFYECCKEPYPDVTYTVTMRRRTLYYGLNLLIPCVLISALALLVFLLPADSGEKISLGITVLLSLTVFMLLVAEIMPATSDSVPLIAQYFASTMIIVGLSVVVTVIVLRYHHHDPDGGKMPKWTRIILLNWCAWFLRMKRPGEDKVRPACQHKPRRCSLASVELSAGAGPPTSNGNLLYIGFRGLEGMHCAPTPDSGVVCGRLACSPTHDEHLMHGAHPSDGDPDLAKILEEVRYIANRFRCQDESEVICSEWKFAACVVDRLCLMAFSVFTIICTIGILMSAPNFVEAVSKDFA
CYP 2D6, sequence (P10635 whole entry): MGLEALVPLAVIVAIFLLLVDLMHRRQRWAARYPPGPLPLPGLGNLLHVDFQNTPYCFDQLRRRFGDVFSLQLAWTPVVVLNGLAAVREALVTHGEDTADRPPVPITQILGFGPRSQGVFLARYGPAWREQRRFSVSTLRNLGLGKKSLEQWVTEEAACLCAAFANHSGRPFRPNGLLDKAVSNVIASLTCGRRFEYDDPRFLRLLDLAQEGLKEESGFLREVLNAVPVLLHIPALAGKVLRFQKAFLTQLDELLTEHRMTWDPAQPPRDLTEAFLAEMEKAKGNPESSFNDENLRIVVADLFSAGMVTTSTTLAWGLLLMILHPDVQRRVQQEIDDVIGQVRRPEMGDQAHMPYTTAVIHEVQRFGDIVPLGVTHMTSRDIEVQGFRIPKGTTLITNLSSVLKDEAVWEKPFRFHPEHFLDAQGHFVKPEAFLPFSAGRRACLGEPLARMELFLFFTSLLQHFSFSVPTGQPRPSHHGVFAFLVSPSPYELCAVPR

With `O=c1ccc2ccc(O[C@@H]3C[C@H]4CC[C@@H](C3)N4)cc2o1` [Compound (I), exo-7-(8-aza-bicyclo[3.2.1]oct-3-yloxy)-chromen-2-one] the fraction unbound at 2710 ng/ml (plasma protein) was 0.871, the “NA (AUC0-160 min)” value ([1]; Hippocampus, 3 mg/kg s.c., 3 mg/kg) was 138±13% and the “NA (AUC0-160 min)” value ([1]; Pre-frontal cortex, 10 mg/kg s.c., 10 mg/kg) was 135±4%. For the same compound, the IC50 (CYP 2D6) was 44000 nM, the “Stability at 1 μM” value [2] was 98% and the “Stability at 5 μM” value [2] was 82%. For the same compound, the IC50 (Nicotinic α7) was over 10000 nM, the “Increase in penile flow” value (mice erectile tissue; 1 mg/kg, n=2) was 4.99 times and the Penile flow (mice erectile tissue; infusion of 1 mg/kg) was “markedly increased”. The IC50 (5-HT transporter [3]) was 1.8 nM, the Ki (5-HT transporter [3]) was 2 nM and the Human transporter ratio (5-HT transporter [3]; 5-HT (reference = 1)) was 1. The T½ i.v. ([4]; 10 mg/kg i.v., 10 mg/kg) was 48 min, the “AUC(0-∞) p.o.” value ([4]; 10 mg/kg p.o., 10 mg/kg) was 2308 ng·h/mL and the Vd [4, 8] was 3.5 L/kg. The clearance [4, 8] was 71.7 mL/min/kg, the AUC(0-inf) ([4]; female, NMRI, plasma, iv, 10 mg/kg, 10 mg/kg i.v., read-out: AUC(0-∞) i.v.) was 2310 ng·h/mL and the half-life ([4]; female, NMRI, plasma, iv, 10 mg/kg, 10 mg/kg i.v., read-out: T½ i.v. (converted)) was 36 min. For the same compound, the Cmax [4, 9] was 1090 ng/mL, the Tmax [4, 9] was 30 min and the AUC(0-inf) ([4]; female, NMRI, plasma, po, 10 mg/kg, 10 mg/kg p.o., read-out: AUC(0-∞) p.o.) was 1720 ng·h/mL. It also gave a half-life ([4]; female, NMRI, plasma, po, 10 mg/kg, 10 mg/kg p.o., read-out: T½ p.o. (converted)) of 66 min, a bioavailability ([4]; plasma, oral, female NMRI mice, 10 mg/kg p.o. vs 10 mg/kg i.v.) of 74% and an IC50 (5-HT transporter [5]) of 0.45 nM. The Ki (SERT) was 0.37 nM, the inhibition at 10 µM (SERT; SERT, Human, 10 μM) was 103% and the “Stability at 1 μM” value [6] was 89%. The “Stability at 5 μM” value [6] was 100%, the “Compound (I), % left after 1 d at 40° C.” value ([7]; Oxidation, 5% H2O2, 0.15 mM) was 83% and the “Compound (I), % left after 3 h at 250 W/m^2” value ([7]; Photostability at pH 7.4) was 11%. For the same compound, the “% left after 26 d at 40° C. 75% rel. humidity in open container” value ([7]; Solid state stability) was 100%, the “Compound (I), % left after 1 d at 40° C.” value ([7]; Stability at pH 1.0, 0.15 mM) was 100% and the “Compound (I), % left after 1 d at 40° C.” value ([7]; Stability at pH 7.4, 0.15 mM) was 100%. The MED (NMRI mice; mFST (NMRI), p.o. 60 min) was 1 mg/kg, the MED (NMRI mice; mFST, 0.03, 0.1, 0.3 mg/kg p.o. −60 min + WAY100635 0.1 mg/kg s.c. −60 min) was 0.1 mg/kg and the MED (NMRI mice; mFST, 1, 3, 10 mg/kg p.o. −60 min + SCH23390 0.00375 mg/kg s.c. −60 min) was 10 mg/kg. For the same compound, the MED (NMRI mice; mFST, 1, 3, 10 mg/kg p.o. −60 min + WAY100635 1 mg/kg s.c. −60 min) was 1 mg/kg, the “Leftward shift in dose-response” value (NMRI mice; mFST, with low dose of WAY100635) was 10 fold and the “Rightward shift in dose-response” value (NMRI mice; mFST, with non-sedative dose of SCH23390) was 10 fold. The Ki (Serotonin 5-HT3) was 1040 nM, the “Separation to transporter hDAT” value (Serotonin 5-HT3; 5-HT3 Ki versus hDAT Ki 155 nM) was “x6.7” and the “Separation to transporter hNET” value (Serotonin 5-HT3; 5-HT3 Ki versus hNET Ki 594 nM) was “x1.7”. The inhibition at 10 µM (Serotonin 5-HT3; Serotonin 5-HT3, Human, 10 μM) was 86%.
